Reference: ChEMBL document CHEMBL1201862, “PubChem BioAssay data set” (2004)
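Exposure lasted 48 hours, with cells grown in 96-well plates and compounds tested at five concentrations. GI50: concentration for 50% inhibition of growth.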 The source made the active and inactive calls. No stated cut-off is given here; in the data, active = GI50 up to about 1.1 µM and inactive = higher.

Columns and labels:
Assay in all cases: NCI anticancer screen, dose series, 48 h
[1] = system: SK-MEL-2
[2] = system: SNB-75
[3] = system: DMS-114
[4] = system: K562
[5] = system: DMS-273
[6] = system: COLO 205
[7] = system: OVCAR-3
[8] = system: EKVX
[9] = system: DLD-1
[10] = system: UACC-257
[11] = system: HOP-18
[12] = system: NCI-H460
[13] = system: SN12C
[14] = system: CAKI-1
[15] = system: CCRF-CEM
[16] = system: XF498
[17] = system: HCT-15
[18] = system: Malme-3M
[19] = system: U-251
[20] = system: IGROV-1
[21] = system: KM12
[22] = system: HOP-92
[23] = system: LOX IMVI
[24] = system: SF-295
[25] = system: NCI-H23
[26] = system: NCI-H522
[27] = system: HT-29
[28] = system: HOP-62
[29] = system: SK-MEL-5
[30] = system: A549
[31] = system: OVCAR-4
[32] = system: M19-MEL
[33] = system: SK-OV-3
[34] = system: OVCAR-5
[35] = system: HL-60
[36] = system: MCF7
[37] = system: RPMI-8226
[38] = system: SK-MEL-28
[39] = system: RXF 393
[40] = system: MOLT-4
[41] = system: SNB-78
[42] = system: KM-20L2
[43] = system: SF-268
[44] = system: SF-539
[45] = system: SW-620
[46] = system: A498
[47] = system: SNB-19
[48] = system: HCT-116
[49] = system: HCC 2998
[50] = system: NCI-H226
[51] = system: UACC-62
[52] = system: UO-31
[53] = system: NCI/ADR-RES
[54] = system: OVCAR-8

Question: What does the source list for `OC[C@H]1O[C@@H](n2cnc3cncnc32)[C@H](O)[C@@H]1O` [NEBULARINE]?
Answer: GI50 [1]: 1670 nM (inactive); GI50 [2]: 628 nM (active); GI50 [3]: 1210 nM (inactive); GI50 [4]: 679 nM (active); GI50 [5]: 590 nM (active); GI50 [6]: 417 nM (active); GI50 [7]: 1650 nM (inactive); GI50 [8]: 605 nM (active); GI50 [9]: 536 nM (active); GI50 [10]: 1610 nM (inactive); GI50 [11]: 2620 nM (inactive); GI50 [12]: 593 nM (active); GI50 [13]: 1400 nM (inactive); GI50 [14]: 423 nM (active); GI50 [15]: 1320 nM (inactive); GI50 [16]: < 10 nM (active); GI50 [17]: 692 nM; GI50 [18]: 2030 nM (inactive); GI50 [19]: 1630 nM (inactive); GI50 [20]: 640 nM (active); GI50 [21]: 1010 nM (active); GI50 [22]: 656 nM (active); GI50 [23]: 977 nM (active); GI50 [24]: 2000 nM (inactive); GI50 [25]: 1750 nM (inactive); GI50 [26]: 2100 nM (inactive); GI50 [27]: 377 nM (active); GI50 [28]: 2450 nM (inactive); GI50 [29]: 1670 nM (inactive); GI50 [30]: 904 nM (active); GI50 [31]: 1120 nM (inactive); GI50 [32]: 3270 nM (inactive); GI50 [33]: 953 nM (active); GI50 [34]: 1400 nM (inactive); GI50 [35]: 326 nM (active); GI50 [36]: 307 nM (active); GI50 [37]: 714 nM (active); GI50 [38]: 1390 nM (inactive); GI50 [39]: 1310 nM (inactive); GI50 [40]: 1260 nM (inactive); GI50 [41]: 4020 nM (inactive); GI50 [42]: 1040 nM (active); GI50 [43]: 1090 nM (active); GI50 [44]: 1430 nM (inactive); GI50 [45]: 462 nM (active); GI50 [46]: 1520 nM (inactive); GI50 [47]: 1450 nM (inactive); GI50 [48]: 321 nM (active); GI50 [49]: 989 nM (active); GI50 [50]: 1340 nM (inactive); GI50 [51]: 1160 nM (inactive); GI50 [52]: 1280 nM (inactive); GI50 [53]: 690 nM (active); GI50 [54]: 1170 nM (inactive)
